Reference: BindingDB's records for doi:10.1021/jm000940u (Aventis Pharma, 2000)

Legend:
[1] = target: Prothrombin (Homo sapiens, UniProt P00734); assay: Enzyme Assay and Determination of the Inhibition Constants.; details: pH 7.5; 22 °C
[2] = target: T1, Serine protease 1 (Bos taurus, UniProt P00760); assay: as above; details: pH 7.5; 22 °C
T1 sequence (P00760 whole entry): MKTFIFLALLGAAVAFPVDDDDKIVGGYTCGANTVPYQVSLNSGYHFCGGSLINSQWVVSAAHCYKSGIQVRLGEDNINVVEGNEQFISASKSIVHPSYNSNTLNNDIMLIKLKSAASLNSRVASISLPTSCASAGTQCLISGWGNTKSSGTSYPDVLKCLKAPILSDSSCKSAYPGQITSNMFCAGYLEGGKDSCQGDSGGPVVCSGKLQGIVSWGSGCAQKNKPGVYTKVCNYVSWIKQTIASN

| Ki [1] | Ki [2] | SMILES |
| --- | --- | --- |
| > 4 µM | > 2.9 µM | Nc1nccc2ccc(CN3CC[C@H](NS(=O)(=O)c4cc5ncccc5s4)C3=O)cc12 [N-[(3S)-1-[(1-aminoisoquinolin-7-yl)methyl]-2-oxopyrrolidin-3-yl]thieno[3,2-b]pyridine-2-sulfonamide] |
| > 4 µM | – | N=C(N)c1ccc(O)c(CN2CC[C@H](NS(=O)(=O)c3cc4ncccc4s3)C2=O)c1 |
| > 4 µM | > 2.9 µM | O=C1[C@@H](NS(=O)(=O)c2cc3ncccc3s2)CCN1Cc1cc2ccncc2[nH]1 [N-[(3S)-1-(4,7-diazabicyclo[4.3.0]nona-2,4,8,10-tetraen-8-ylmethyl)-2-oxo-pyrrolidin-3-yl]-7-thia-2-azabicyclo[4.3.0]nona-2,4,8,10-tetraene-8-sulfonamide] |
